According to patent publication US9902702B2, “Spirocycloheptanes as inhibitors of rock” (BRISTOL-MYERS SQUIBB COMPANY, priority 2014, dated 2018):

Biological target: ROCK2 (Homo sapiens, UniProt O75116)
Assay: ROCK assay: phosphorylation of FITC peptide substrate, LABCHIP 3000 mobility shift
Type: biochemical
Settings: 5 μM ATP, 1.5 μM peptide substrate; read-out: ROCK2 Activity (ROCK IC50 range)
Method: The effectiveness of compounds of the present invention as ROCK inhibitors can be determined in a 30 μL assay containing 20 mM HEPES, pH 7.5, 20 mM MgCl2, 0.015% Brij-35, 4 mM DTT, 5 μM ATP and 1.5 μM peptide substrate (FITC-AHA-AKRRRLSSLRA-OH). Compounds were dissolved in DMSO so that the final concentration of DMSO was <2%, and the reaction was initiated with Rho kinase variants. After incubation, the reaction was terminated by the addition of EDTA and the phosphorylated and non-phosphorylated peptides separated using a LABCHIP® 3000 Reader (Caliper Life Sciences). […] Compounds were tested in dose-response format, and the inhibition of kinase activity was calculated at each concentration of compound. The inhibition data were fit using a curve-fitting program to determine the IC50; i.e., the concentration of compound required to inhibit 50% of kinase activity.
Representative Examples were tested in the ROCK assay described above and found having ROCK inhibitory activity.

Sequence of ROCK2 (O75116 whole entry, species assumed): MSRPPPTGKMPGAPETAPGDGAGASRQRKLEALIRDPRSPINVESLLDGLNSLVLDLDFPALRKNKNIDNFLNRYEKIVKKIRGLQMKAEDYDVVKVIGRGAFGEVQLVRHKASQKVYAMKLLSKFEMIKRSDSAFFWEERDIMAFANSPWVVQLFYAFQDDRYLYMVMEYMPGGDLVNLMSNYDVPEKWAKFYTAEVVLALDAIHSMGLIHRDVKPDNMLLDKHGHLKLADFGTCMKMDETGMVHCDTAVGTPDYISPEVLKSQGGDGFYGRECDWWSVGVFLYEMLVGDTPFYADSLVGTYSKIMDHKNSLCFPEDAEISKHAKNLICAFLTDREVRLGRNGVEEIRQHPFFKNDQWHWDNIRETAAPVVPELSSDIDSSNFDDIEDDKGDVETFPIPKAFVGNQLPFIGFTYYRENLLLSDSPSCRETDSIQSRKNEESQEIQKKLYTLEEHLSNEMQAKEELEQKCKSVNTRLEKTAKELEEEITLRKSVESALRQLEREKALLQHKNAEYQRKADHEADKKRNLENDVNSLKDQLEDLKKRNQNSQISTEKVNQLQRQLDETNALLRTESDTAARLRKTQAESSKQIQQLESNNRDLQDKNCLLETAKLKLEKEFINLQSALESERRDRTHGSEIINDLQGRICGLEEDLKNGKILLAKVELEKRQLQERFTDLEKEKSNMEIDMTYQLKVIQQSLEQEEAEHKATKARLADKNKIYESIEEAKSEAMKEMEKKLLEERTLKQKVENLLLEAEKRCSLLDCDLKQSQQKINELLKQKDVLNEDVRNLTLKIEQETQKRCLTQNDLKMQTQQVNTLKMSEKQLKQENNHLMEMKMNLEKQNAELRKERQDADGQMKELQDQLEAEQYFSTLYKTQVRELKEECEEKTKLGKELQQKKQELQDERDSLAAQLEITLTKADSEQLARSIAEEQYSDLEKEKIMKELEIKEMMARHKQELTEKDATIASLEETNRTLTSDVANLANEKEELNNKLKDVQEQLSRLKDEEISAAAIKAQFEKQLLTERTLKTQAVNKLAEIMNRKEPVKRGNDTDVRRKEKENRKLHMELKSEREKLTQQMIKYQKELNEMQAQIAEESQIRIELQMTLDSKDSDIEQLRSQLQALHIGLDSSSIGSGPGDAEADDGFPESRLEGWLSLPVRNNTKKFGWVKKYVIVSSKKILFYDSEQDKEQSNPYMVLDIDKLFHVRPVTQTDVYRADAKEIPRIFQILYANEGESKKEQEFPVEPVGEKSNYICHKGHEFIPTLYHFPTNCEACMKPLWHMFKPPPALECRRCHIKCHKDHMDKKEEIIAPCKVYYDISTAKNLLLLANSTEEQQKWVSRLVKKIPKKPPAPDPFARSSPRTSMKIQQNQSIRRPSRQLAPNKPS

Row | SMILES | IC50
1 | Cc1nc(N2CCCC2)sc1C(=O)NC1CC2(C1)CC(c1n[nH]c(=O)c3ccccc13)C2 [Example 35, 4-methyl-N-[(aR)-6-(4-oxo-3,4-dihydrophthalazin-1-yl)spiro[3.3]heptan-2-yl]-2-(pyrrolidin-1-yl)-1,3-thiazole-5-carboxamide] | 5.1 to 15 nM
2 | Cc1nc(N2CCC(F)C2)sc1C(=O)NC1CC2(C1)CC(c1n[nH]c(=O)c3ccccc13)C2 [Example 36, 2-[(3S)-3-fluoropyrrolidin-1-yl]-4-methyl-N-[(aR)-6-(4-oxo-3,4-dihydrophthalazin-1-y)spiro[3.3]heptan-2-yl]-1,3-thiazole-5-carboxamide] | 2.01 to 5 nM
3 | Cc1nc(N2CCC(F)C2)sc1C(=O)NC1CC2(C1)CC(c1n[nH]c(=O)c3ccccc13)C2 [Example 37, 2-[(3R)-3-fluoropyrrolidin-1-yl]-4-methyl-N-[(aR)-6-(4-oxo-3,4-dihydrophthalazin-1-yl)spiro[3.3]heptan-2-yl]-1,3-thiazole-5-carboxamide] | 5.1 to 15 nM
4 | Cc1nc(N2CCC(C#N)C2)sc1C(=O)NC1CC2(C1)CC(c1n[nH]c(=O)c3ccccc13)C2 [Example 38, 2-[(3S)-3-cyanopyrrolidin-1-yl]-4-methyl-N-[(aR)-6-(4-oxo-3,4-dihydrophthalazin-1-yl)spiro[3.3]heptan-2-yl]-1,3-thiazole-5-carboxamide] | 5.1 to 15 nM
5 | Cc1nc(N2CCC(C#N)C2)sc1C(=O)NC1CC2(C1)CC(c1n[nH]c(=O)c3ccccc13)C2 [Example 39, 2-[(3R)-3-cyanopyrrolidin-1-yl]-4-methyl-N-[(aR)-6-(4-oxo-3,4-dihydrophthalazin-1-yl)spiro[3.3]heptan-2-yl]-1,3-thiazole-5-carboxamide] | 5.1 to 15 nM
6 | Cc1nc(N2CCC3CC32)sc1C(=O)NC1CC2(C1)CC(c1n[nH]c(=O)c3ccccc13)C2 [Example 40, rel-2-[(1S,5R)-2-azabicyclo[3.1.0]hexan-2-yl]-4-methyl-N-[(aR)-6-(4-oxo-3,4-dihydrophthalazin-1-yl)spiro[3.3]heptan-2-yl]-1,3-thiazole-5-carboxamide] | 2.01 to 5 nM
7 | Cc1nc(N2CCC(F)(F)C2)sc1C(=O)NC1CC2(C1)CC(c1n[nH]c(=O)c3ccccc13)C2 [Example 41, 2-(3,3-difluoropyrrolidin-1-yl)-4-methyl-N-[(aR)-6-(4-oxo-3,4-dihydrophthalazin-1-yl)spiro[3.3]heptan-2-yl]-1,3-thiazole-5-carboxamide] | 2.01 to 5 nM
8 | Cc1nc(NC2CC2)sc1C(=O)NC1CC2(C1)CC(c1n[nH]c(=O)c3ccccc13)C2 [Example 42, 2-(cyclopropylamino)-4-methyl-N-[(aR)-6-(4-oxo-3,4-dihydrophthalazin-1-yl)spiro[3.3]heptan-2-yl]-1,3-thiazole-5-carboxamide] | 15.1 to 100 nM
9 | O=c1[nH]nc([C@H]2CC3(C[C@H](Nc4nnc(-c5ccccc5)s4)C3)C2)c2ccccc12 (stereo partly drawn) [Example 43, 4-((aR)-6-((5-Phenyl-1,3,4-thiadiazol-2-yl)amino)spiro[3.3]heptan-2-yl)phthalazin-1(2H)-one(2H)-one] | 5.1 to 15 nM
10 | O=c1[nH]nc([C@H]2CC3(C[C@H](Nc4ncc(-c5ccccc5)o4)C3)C2)c2ccccc12 (stereo partly drawn) [Example 44, 4-((aR)-6-((5-phenyloxazol-2-yl)amino)spiro[3.3]heptan-2-yl)phthalazin-1(2H)-one(2H)-one] | 100 to 2100 nM
11 | O=c1[nH]nc([C@H]2CC3(C[C@H](Nc4nncc5ccccc45)C3)C2)c2ccccc12 (stereo partly drawn) [Example 45, 4-((aR)-6-(Phthalazin-1-ylamino)spiro[3.3]heptan-2-yl)phthalazin-1(2H)-one(2H)-one] | 5.1 to 15 nM
12 | O=C(C1CC2(C1)CC(c1n[nH]c(=O)c3ccccc13)C2)N1CCc2ccccc21 (centres unmarked) [Example 46, 4-(6-(Indoline-1-carbonyl)spiro[3.3]heptan-2-yl)phthalazin-1(2H)-one(2H)-one] | 100 to 2100 nM
13 | O=C(C1CC2(C1)CC(c1n[nH]c(=O)c3ccccc13)C2)N1Cc2ccccc2C1 (centres unmarked) [Example 47, 4-[6-(2,3-dihydro-1H-isoindole-2-carbonyl)spiro[3.3]heptan-2-yl]-1,2-dihydrophthalazin-1-one] | 100 to 2100 nM
14 | Cc1nnc(NC(=O)C2CC3(C2)CC(c2n[nH]c(=O)c4ccccc24)C3)s1 (centres unmarked) [Example 48, N-(5-methyl-1,3,4-thiadiazol-2-yl)-6-(4-oxo-3,4-dihydrophthalazin-1-yl)spiro[3.3]heptane-2-carboxamide] | 100 to 2100 nM
15 | Cc1cc(NC(=O)C2CC3(C2)CC(c2n[nH]c(=O)c4ccccc24)C3)no1 (centres unmarked) [Example 49, N-(5-methyl-1,2-oxazol-3-yl)-6-(4-oxo-3,4-dihydrophthalazin-1-yl)spiro[3.3]heptane-2-carboxamide] | 100 to 2100 nM
16 | [H][C@]1(c2n[nH]c(=O)c3ccccc32)C[C@]2(C[C@@H](NC(=O)N3CCc4ccccc43)C2)C1 (stereo partly drawn) [Example 50, N-((aR)-6-(4-Oxo-3,4-dihydrophthalazin-1-yl)spiro[3.3]heptan-2-yl)indoline-1-carboxamide] | 5.1 to 15 nM
17 | O=C(N[C@H]1CC2(C1)C[C@H](c1n[nH]c(=O)c3ccccc31)C2)N1Cc2ccccc2C1 (stereo partly drawn) [Example 51, N-((aR)-6-(4-Oxo-3,4-dihydrophthalazin-1-yl)spiro[3.3]heptan-2-yl)isoindoline-2-carboxamide] | 5.1 to 15 nM
18 | O=C(CC1CC2(C1)CC(c1n[nH]c(=O)c3ccccc13)C2)N1CCc2ccccc21 (centres unmarked) [Example 52, 4-(6-(2-(Indolin-1-yl)-2-oxoethyl)spiro[3.3]heptan-2-yl)phthalazin-1(2H)-one] | 15.1 to 100 nM
19 | Cc1sc(N2CC[C@@H](F)C2)nc1C(=O)N[C@H]1CC2(C1)C[C@H](c1n[nH]c(=O)c3ccccc31)C2 (stereo partly drawn) [Example 53, 2-((R)-3-fluoropyrrolidin-1-yl)-5-methyl-N-((aR)-6-(4-oxo-3,4-dihydrophthalazin-1-yl)spiro[3.3]heptan-2-yl)thiazole-4-carboxamide] | 2.01 to 5 nM
20 | Cc1sc(N2CCC(F)(F)C2)nc1C(=O)NC1CC2(C1)CC(c1n[nH]c(=O)c3ccccc13)C2 [Example 54, 2-(3,3-difluoropyrrolidin-1-yl)-5-methyl-N-((aR)-6-(4-oxo-3,4-dihydrophthalazin-1-yl)spiro[3.3]heptan-2-yl)thiazole-4-carboxamide] | 0.2 to 2 nM
21 | Cc1sc(N2CCC(C#N)C2)nc1C(=O)NC1CC2(C1)CC(c1n[nH]c(=O)c3ccccc13)C2 [Example 55, 2-((S)-3-cyanopyrrolidin-1-yl)-5-methyl-N-((aR)-6-(4-oxo-3,4-dihydrophthalazin-1-yl)spiro[3.3]heptan-2-yl)thiazole-4-carboxamide] | 5.1 to 15 nM
22 | Cc1sc(N2CCC(C#N)C2)nc1C(=O)NC1CC2(C1)CC(c1n[nH]c(=O)c3ccccc13)C2 [Example 56, 2-((R)-3-cyanopyrrolidin-1-yl)-5-methyl-N-((aR)-6-(4-oxo-3,4-dihydrophthalazin-1-yl)spiro[3.3]heptan-2-yl)thiazole-4-carboxamide] | 5.1 to 15 nM
23 | Cc1sc(NC2CC(F)(F)C2)nc1C(=O)NC1CC2(C1)CC(c1n[nH]c(=O)c3ccccc13)C2 [Example 57, 2-((3,3-difluorocyclobutyl)amino)-5-methyl-N-((aR)-6-(4-oxo-3,4-dihydrophthalazin-1-yl)spiro[3.3]heptan-2-yl)thiazole-4-carboxamide] | 5.1 to 15 nM
